Data: patent US11174439B2, “Method to inhibit polymerization in a process water” (Ecolab USA, Inc., priority 2016, dated 2021)
Values joined by “and” are separate entries in the source; they are usually repeats but may differ in a detail not shown here. Equal entries are not always repeated. One block for each compound: values may come before it.

Assay: Pygas-water partition coefficient determination (simulated pygas / de-ionized water, HPLC-MS)
Assay type: physicochemical
Details: for [sBuPDA] (ppm) in Undiluted Phase, Average / [HTMPO] (ppm) in Undiluted Phase, Average / [HTMPOH] (ppm) in Undiluted Phase, Average: average of 3 trials ± standard uncertainty; for [sBuPDA] (ppm) in Undiluted Phase / [HTMPO] (ppm) in Undiluted Phase / [HTMPOH] (ppm) in Undiluted Phase: individual trials 1-3; for Partition Ratio (pygas/aqueous): simulated pygas vs de-ionized water, ± standard uncertainty; for [HTMPO] (ppm) in Undiluted Phase: inhibitor 1.0 wt % total
Experimental: Pygas-water partition coefficients are determined by measuring the concentration of a polymerization inhibitor in a pygas-water mixture. In some embodiments, a pygas from an actual process water sample is used as the pygas in the determination; in some such embodiments, an actual process water is used. In other embodiments, a simulated pygas is formed and water is added to the simulated pygas for the determination. For purposes of providing measurements related to the disclosures herein, a simulated pygas consisting essentially of a mixture of toluene, styrene, cyclohexane, n-hexane, and dicyclopentadiene is employed. Partition coefficient is determined by mixing equal volumes of de-ionized water and simulated pygas, then adding a potential polymerization inhibitor at a concentration range of about 0.1 wt % to 5 wt %, in some embodiments, followed by a period of vigorous mixing, then a period of standing undisturbed to allow the phases to separate; the relative concentration of a species in each phase determines the partition coefficient. For purposes of partition coefficients recited herein, the test is conducted at a target inhibitor concentration of 1 wt % (10,000 ppm) followed by vigorous mixing for 30 minutes, followed by allowing the mixture to stand substantially unperturbed for 30 minutes. The pygas and aqueous phases that result in the unperturbed mixture are separated and concentration of the potential polymerization inhibitor in each phase is quantified, for example by high performance liquid chromatography coupled with mass spectrometry analysis (HPLC-MS). The partition ratio, or partition coefficient, of the potential polymerization inhibitor between the pygas and aqueous phases is then calculated according to the formula
[formula] where P is the partition coefficient, [I]pygas is the concentration of the potential polymerization inhibitor in the pygas phase, and [I]aqueous is the concentration of potential polymerization inhibitor in the aqueous phase.
The partition ratio of the polymerization inhibitor […]-2,2,6,6-tetramethylpiperidinyl-1-oxyl (HTMPO) between pygas and aqueous phases was determined by the following procedure. HTMPO was added to a mixture of equal volumes of de-ionized water and simulated pyrolysis gasoline (pygas). The simulated pygas consisted of a mixture of toluene, styrene, cyclohexane, n-hexane, and dicyclopentadiene. The amounts of inhibitor and liquid phases used were such that the inhibitor was present at a total concentration of 1.0 wt % based on the weight of the combined phases.
The system consisting of the inhibitor, pygas phase, and aqueous phase was vigorously stirred for thirty minutes, after which time it was allowed to sit undisturbed for an additional thirty minutes. The immiscible pygas and aqueous phases were then separated.
A stock solution of known concentration of HTMPO in acetonitrile was diluted with water/acetonitrile to give five different solutions at concentrations spanning an appropriate working range of a high performance liquid chromatograph (HPLC) coupled to a mass spectrometer with an electrospray ionization (ESI) source. The five dilute solutions were analyzed as standards using HPLC-MS, and the areas of the peaks corresponding to HTMPO in these solutions were used to construct a calibration curve of peak area vs. concentration (mass fraction, ppm).
The pygas phase of unknown concentration of HTMPO, separated from the aqueous phase in the first part of the experiment, was diluted with water/acetonitrile to give a solution whose concentration was within the range of the calibration curve. The dilute pygas solution was analyzed by HPLC-MS, and the concentration of HTMPO in this pygas solution was calculated by interpolation of its HTMPO peak area into the calibration curve. The concentration of HTMPO in the original, undiluted pygas phase was calculated by applying the dilution factor to the interpolated concentration of the diluted solution. […]

[sBuPDA] (ppm) in Undiluted Phase, Average (Aqueous Phase): 0.29 ± 0.03 ppm
[sBuPDA] (ppm) in Undiluted Phase (Aqueous Phase): 0.29 ppm and 0.26 ppm and 0.32 ppm
[sBuPDA] (ppm) in Undiluted Phase, Average (Pygas Phase): 4075 ± 161.6 ppm
[sBuPDA] (ppm) in Undiluted Phase (Pygas Phase): 4218.2 ppm and 4109.2 ppm and 3900.2 ppm
Partition Ratio (pygas/aqueous) (sBuPDA): 14000 ± 2000
SMILES: CCC(C)Nc1ccc(NC(C)CC)cc1 (stereo not drawn) [sBuPDA, N,N′-di-sec-butyl-1,4-phenylenediamine]

SMILES: CC1(C)CC(O)CC(C)(C)N1[O] [HTMPO, 4-hydroxy-2,2,6,6-tetramethylpiperidinyl-1-oxyl]
[HTMPO] (ppm) in Undiluted Phase, Average (Aqueous Phase): 7410.8 ± 453.5 ppm
[HTMPO] (ppm) in Undiluted Phase (Aqueous Phase): 7155.2 ppm and 7142.9 ppm and 7934.4 ppm
Partition Ratio (pygas/aqueous) (HTMPO): 0.079 ± 0.008
[HTMPO] (ppm) in Undiluted Phase, Average (Pygas Phase): 582.8 ± 47.0 ppm
[HTMPO] (ppm) in Undiluted Phase (Pygas Phase, equal volumes de-ionized water and simulated pygas): 597.8 ppm and 530.2 ppm and 620.5 ppm

SMILES: CC1(C)CC(O)CC(C)(C)N1O [HTMPOH, 1,4-dihydroxy-2,2,6,6-tetramethylpiperidine]
[HTMPOH] (ppm) in Undiluted Phase, Average (Aqueous Phase): 2829.8 ± 79.0 ppm
[HTMPOH] (ppm) in Undiluted Phase (Aqueous Phase): 2807.5 ppm and 2764.3 ppm and 2917.6 ppm
Partition Ratio (pygas/aqueous) (HTMPOH): 0.0096 ± 0.0003
[HTMPOH] (ppm) in Undiluted Phase, Average (Pygas Phase): 27.2 ± 0.6 ppm
[HTMPOH] (ppm) in Undiluted Phase (Pygas Phase): 27.8 ppm and 26.6 ppm and 27.2 ppm
